Experiments:
[1] = tested on: rats; assay: acute oral toxicity study, limit test (OECD up and down procedure); type: in vivo
Description: For the acute toxicity study, a limit test on the laboratory animals at 2000 mg/kg body weight was selected and the up and down procedure (UDP) was followed as per the guidelines of the Organization for Economic Cooperation and Development (OECD). The purpose was to evaluate the dose necessary to perform various pharmacological activities.
Healthy young adult male rats of about 8 to 12 weeks old were selected for dosing.
The rats were randomly selected, marked for an individual identification, and retained in their cages for at least 5 days before dosing to acclimatize to the laboratory conditions. Prior to dosing, the animals were fasted and they were refrained from food, not water, for 16–18 h.
After the fasting period, the weight of each animal was determined and according to the body weight of the animals, the dose at 2000 mg/kg body weight was calculated for each animal. A unique dose of the studied compound 10d was administered to the animals for the UDP study by the oral route using an intragastric cannula 16 G, and it was planned to dose the five animals on the same day. […] The onset time, toxic reactions, and length of the recovery period determined the duration of the observation and when considered necessary, may be extended. […] Individual observations were recorded and maintained systematically for each animal. […]

[2] = tested on: streptozotocin-induced diabetic rats; assay: liver and renal serum biomarkers; type: in vivo, Wistar rats; conditions: 28th day
Description: (§1) Non-insulin-dependent diabetes mellitus was induced in fasted rats weighing 150–230 gm using a single dose of streptozotocin (STZ) at a dose of 60 mg/kg intraperitoneally after 15 min of the administration of nicotinamide at a 120 mg/kg dose i.p. Nicotinamide was prepared in normal saline while in citrate buffer (pH 4.5), STZ was prepared. After the induction of diabetes, the increase in the plasma glucose level was measured at 72 h and then measured on the 7th day to confirm hyperglycemia. For the diagnosis of diabetes, the threshold value of the fasting plasma glucose level was considered to be more than 126 mg/dl. For the study, only the animals with permanent NIIDM were utilized.
(§2) The animals were classified into 5 groups with 6 animals in each group (n = 6). Group I comprised of normal control rats which were daily administered drinking water only; group II served as diabetic control rats (disease group); group III served as the positive control and were administered 0.5 mg/kg of the standard drug glibenclamide; and group IV and V served as the test group rats and were administered the test compound 10d at 10 mg/kg and 20 mg/kg, respectively, for twenty-eight days. The fasting glucose concentration was measured on the 0, 7th, 14th, and 28th day of the administration of the extract. During the experimental tenure, the weights of the rats were determined daily and the mean change was recorded.
(§3) The animals were euthanized (sacrificed) via cervical dislocation on the 28th day to observe the biochemical parameters. The parameters studied were triglyceride (TGL), cholesterol, low-density lipoprotein, and high-density lipoprotein (LDL and HDL). The Minias Globe Diagnostic kits were used for cholesterol and TGL. Semi-autoanalyzers were used for the analysis. The serum samples from the rats were also checked for alanine aminotransferase (ALT), aspartate aminotransferase (AST), lactate dehydrogenase (LDH), serum alkaline phosphatase (ALP), and creatinine and urea levels utilizing commercially available kits of Crest Biosystems. The statistical analysis was also performed as per the previous procedure.

[3] = tested on: streptozotocin-induced diabetic rats; assay: serum insulin level estimation; type: in vivo, Wistar rats; set-up: unit not given here; conditions: for Insulin Level (Mean ±SEM), Final Reading: 28th day
Description: as §1, §2
After the 28th day of treatment with the test compound 10d, the blood samples were taken for the determination of the insulin levels, which were measured with the help of GLAZYME INSULIN-EIA TEST.

[4] = tested on: streptozotocin-induced diabetic rats; assay: effect on serum lipid profile of diabetic animals; type: in vivo, Wistar rats; conditions: compared to diabetic control group
Description: (§4) The antidiabetic activity of the synthesized compound 10d was evaluated using a streptozotocin-induced diabetic rats model.
(§5) Male Wistar rats weighing 150 to 230 gm were used for the study which were housed in polyacrylic cages (no more than six animals per cage) with dimensions of 38 × 23 × 10 cm and maintained under standard laboratory conditions with a dark/light cycle of 14 h of dark and 10 h of light at a temperature of 25 °C. The animals were provided with a standard diet (dry pellet) and water ad libitum. Before the start of the experimental procedures, the rats were acclimatized to laboratory conditions for 10 days. All the experiments were approved and performed as per the guidelines of the Departmental Research Ethics Committee under letter No. DREC/050 [49].
as §1, §2, §3

[5] = biological target: T1, human DPP-4 enzyme (Homo sapiens, UniProt P27487); assay: DPP-4 activity bioassay; type: biochemical
T1 construct: purchased
T1 sequence (P27487 whole entry): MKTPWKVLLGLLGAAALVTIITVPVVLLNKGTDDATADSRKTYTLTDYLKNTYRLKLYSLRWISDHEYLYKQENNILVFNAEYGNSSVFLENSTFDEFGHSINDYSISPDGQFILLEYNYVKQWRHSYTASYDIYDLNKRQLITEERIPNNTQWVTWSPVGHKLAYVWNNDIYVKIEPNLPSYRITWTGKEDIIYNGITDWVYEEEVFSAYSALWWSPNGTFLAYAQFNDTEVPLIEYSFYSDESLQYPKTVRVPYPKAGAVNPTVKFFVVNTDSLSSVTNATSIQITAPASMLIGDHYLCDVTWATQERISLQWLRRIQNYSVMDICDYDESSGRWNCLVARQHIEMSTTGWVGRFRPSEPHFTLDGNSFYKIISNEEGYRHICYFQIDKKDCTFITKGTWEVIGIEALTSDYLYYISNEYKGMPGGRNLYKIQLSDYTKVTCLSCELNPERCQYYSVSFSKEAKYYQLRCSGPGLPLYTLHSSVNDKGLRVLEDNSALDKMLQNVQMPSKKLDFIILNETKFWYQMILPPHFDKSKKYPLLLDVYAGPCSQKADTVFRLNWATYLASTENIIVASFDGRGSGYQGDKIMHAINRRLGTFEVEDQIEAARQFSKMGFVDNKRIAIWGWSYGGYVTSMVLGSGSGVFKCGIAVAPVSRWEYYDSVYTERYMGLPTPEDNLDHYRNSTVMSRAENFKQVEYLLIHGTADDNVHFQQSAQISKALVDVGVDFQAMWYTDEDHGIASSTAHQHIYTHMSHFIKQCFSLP
Description: All succinimides and thiazolidinedione hybrids were tested for DPP-4 inhibitory effects on a human DPP-4 enzyme using the methodology published before. The DPP-4 kit was used to measure the inhibition. L-thiazolidine (P32/98) was included as a reference. The hybrids and DPP-4 enzyme were both adulterated 1/50 in the assay buffer (PH = 7.4, 25 mM Tris). Following that, a microplate well was filled with 5 μL of assay buffer, 3 μL of enzyme solution, and 2 μL of adequately diluted test chemical solutions. After a 12-min incubation period at 37.5 °C, a diluted substrate solution of 25 μL was added into the solution. A multi-mode reader was used to assess the fluorescence. […] PRISM5 was used to calculate the IC50 values and compare the inhibition ratio to the control without the inhibitor.

[6] = tested on: streptozotocin-induced diabetic rats; assay: in vivo antidiabetic activity, fasting plasma glucose level; set-up: species or system Wistar rats; conditions: STZ-induced diabetic rats, 28th day
Description: as §4, §5, §1
The animals were classified into 5 groups with 6 animals in each group (n = 6). […] The fasting glucose concentration was measured on the 0, 7th, 14th, and 28th day of the administration of the extract. During the experimental tenure, the weights of the rats were determined daily and the mean change was recorded.

[7] = tested on: streptozotocin-induced diabetic rats; assay: effect on body weight; type: in vivo, Wistar rats; conditions: for Change in Body Weight, After Treatment: 28 days
Description: as §4, §5, §1, §2

Question: For `CC(C)(C=C1SC(=O)N(C(=O)CN2CCOCC2)C1=O)C1CC(=O)N(Cc2ccccc2)C1=O` (stereo not drawn) [10d], which “acute toxicity observation (behavior, mortality)” value ([1]; limit dose 2000 mg/kg body weight, observed 14 days) is on record?
Answer: Its value is “no abnormal changes in their behavior and no mortality”.

Question: What about the “LD50 class as per OECD guidelines” value ([1]; maximum dose 2000 mg/kg) of the same molecule?
Answer: Its value is “class IV”.

Question: And the ALP ([2]; 10mg (10 mg/kg))?
Answer: Its ALP is 184.43 ± 3.83 U/L.

Question: And the ALT ([2]; 10mg (10 mg/kg))?
Answer: Its ALT is 136.80 ± 2.15 U/L.

Question: And the AST ([2]; 10mg (10 mg/kg))?
Answer: Its AST is 123.40 ± 3.70 U/L.

Question: And the Creatinine ([2]; 10mg (10 mg/kg))?
Answer: Its Creatinine is 0.51 ± 0.57 ^ns mg/dl.

Question: And the LDH ([2]; 10mg (10 mg/kg))?
Answer: Its LDH is 930.11 ± 4.26 U/L.

Question: What about the Urea ([2]; 10mg (10 mg/kg)) of the same molecule?
Answer: Its Urea is 75.26 ± 2.44 mg/dL.

Question: And the ALP ([2]; 20mg (20 mg/kg))?
Answer: Its ALP is 122.80 ± 2.00 U/L.

Question: What about the ALT ([2]; 20mg (20 mg/kg)) of the same molecule?
Answer: The ALT was 60.42 ± 2.20 U/L.

Question: And the AST ([2]; 20mg (20 mg/kg))?
Answer: The AST was 94.32 ± 2.30 U/L.

Question: And the Creatinine ([2]; 20mg (20 mg/kg))?
Answer: The Creatinine was 0.42 ± 0.31 ^ns mg/dl.

Question: What about the LDH ([2]; 20mg (20 mg/kg)) of the same molecule?
Answer: The LDH was 850.53 ± 4.41 U/L.

Question: And the Urea ([2]; 20mg (20 mg/kg))?
Answer: The Urea was 51.53 ± 2.23 mg/dL.

Question: What about the “Insulin Level (Mean ±SEM), Initial Reading” value ([3]; 10mg (10 mg/kg) group) of the same molecule?
Answer: Its value is 0.81 ± 0.25.

Question: What about the “Insulin Level (Mean ±SEM), Final Reading” value ([3]; 10mg (10 mg/kg) group) of the same molecule?
Answer: The value was 0.65 ± 0.57.

Question: What about the “Insulin Level (Mean ±SEM), Initial Reading” value ([3]; 20mg (20 mg/kg) group) of the same molecule?
Answer: The value was 0.76 ± 0.38.

Question: And the “Insulin Level (Mean ±SEM), Final Reading” value ([3]; 20mg (20 mg/kg) group)?
Answer: Its value is 0.76 ± 0.81.

Question: What about the HDL level [4] of the same molecule?
Answer: Its HDL level is “greater than before”.

Question: And the LDL in serum [4]?
Answer: The LDL in serum was “significant decline”.

Question: And the “total cholesterol level in serum” value [4]?
Answer: Its value is “significant decline”.

Question: What about the triglyceride in serum [4] of the same molecule?
Answer: Its triglyceride in serum is “significant decline”.

Question: And the inhibition at 31.25 µM ([5]; 31.25 µM, read-out: DPP4 (inhibition) (converted))?
Answer: Its inhibition at 31.25 µM is 71.4%.

Question: And the inhibition at 62.5 µM ([5]; 62.5 µM, read-out: DPP4 (inhibition) (converted))?
Answer: The inhibition at 62.5 µM was 76.5%.

Question: And the inhibition at 125 µM ([5]; 125 µM, read-out: DPP4 (inhibition) (converted))?
Answer: The inhibition at 125 µM was 81.4%.

Question: And the inhibition at 250 µM ([5]; 250 µM, read-out: DPP4 (inhibition) (converted))?
Answer: Its inhibition at 250 µM is 85.3%.

Question: And the inhibition at 500 µM ([5]; 500 µM, read-out: DPP4 (inhibition))?
Answer: The inhibition at 500 µM was 91.4 ± 1.49%.

Question: And the IC50 ([5]; read-out: IC50 DPP4)?
Answer: The IC50 was 4.22 µM.

Question: What about the blood glucose level ([6]; 10 mg/kg) of the same molecule?
Answer: Its blood glucose level is 93.15 mg/dL.

Question: What about the blood glucose level ([6]; 20 mg/kg) of the same molecule?
Answer: Its blood glucose level is 70.60 mg/dL.

Question: What about the “Change in Body Weight, After Induction” value ([7]; 10mg (10 mg/kg) group) of the same molecule?
Answer: Its value is 154.22 ± 3.62 gm.

Question: And the “Change in Body Weight, Before Induction” value ([7]; 10mg (10 mg/kg) group)?
Answer: Its value is 191.23 ± 1.50 ^ns gm.

Question: And the “Change in Body Weight, After Treatment” value ([7]; 10mg (10 mg/kg) group)?
Answer: Its value is 182.43 ± 5.76 gm.

Question: And the “Change in Body Weight, After Induction” value ([7]; 20mg (20 mg/kg) group)?
Answer: Its value is 171.60 ± 1.90 ^ns gm.

Question: What about the “Change in Body Weight, Before Induction” value ([7]; 20mg (20 mg/kg) group) of the same molecule?
Answer: Its value is 204.66 ± 3.60 gm.

Question: What about the “Change in Body Weight, After Treatment” value ([7]; 20mg (20 mg/kg) group) of the same molecule?
Answer: Its value is 198.19 ± 4.66 gm.

— article PMC9918900, “New Succinimide–Thiazolidinedione Hybrids as Multitarget Antidiabetic Agents: Design, Synthesis, Bioevaluation, and Molecular Modelling Studies” (Molecules, 2023)
